# Columns and labels:
# [1] = system: Pythium ultimum IFO 32426 strain; experiment: Oospore formation of Pythium ultimum in sugar solution; assay type: cell-based; details: 0.05% (w/v) sugar solution, 23° C., 4 days
# Experimental: With regard to Pythium ultimum that causes damping-off of spinach and the like, an effect of a rare sugar on oospore formation was examined.
# First, as the Pythium ultimum, IFO 32426 strain was used, and static culture thereof was carried out with 200 ml of V8 medium at 23° C. for 1 week. The resulting mycelial mat was well washed with sterile water and divided into 16 equal parts with forceps. This mycerial body was disentangled uniformly to form a small piece and immersed in 20 ml of a sugar solution at a concentration of 0.05% (w/v) and let stand at 23° C. for 4 days. […] Further, the same experiment was carried out using Pythium zingiberum IFO 30817 strain.
# [2] = system: rice plant (variety: “Hinohikari”); experiment: Foliar spraying of sugar on pot-grown rice; assay type: in vivo
# Experimental: After seeds of a rice plant (variety: “Hinohikari”) were put in a nylon net and subjected to sterilization and a germination induction treatment in a growth chamber at 30° C. for 2 days while they were soaked in 0.1% (w/v) Benlate (Hokko Chemical Industry Co., Ltd.) in accordance with a common method, they were sown in a nursery tray filled with “Kumiai Ryujou Baido SD” (Kureha Chemical Industry Co., Ltd.) and raised in a phytotron (day temperature: 25° C. and night temperature: 18° C.) for about 2 weeks. Then, Wagner pots with a size of 1/5,000a were filled with “Kumiai Ryujou Baido SD” (Kureha Chemical Industry Co., Ltd.) and the raised rice seedlings were transplanted for permanent planting to the pots and the cultivation was started on Jul. 2, 2003 in the open air under the condition that the soil was covered with water in the pots. From Jul. 16, 2003, when the seedlings were confirmed to take root, water, a 0.02% (w/v) sugar solution, a 0.1% (w/v) sugar solution or a 0.5% (w/v) sugar solution was sprayed onto the whole plant on a three times weekly basis. As for the types of sugars, D-glucose, D-fructose and D-psicose were used and three pots were cultivated for each test plot. The cultivation was continued in such a manner that the water in pots was not dried up and after 5 g of Magamp K medium (HYPONeX JAPAN CORP., Ltd.) per pot was added as additional fertilization on Aug. 29, 2003, and the harvest and survey were carried out on Sep. 22, 2003. The survey items were plant length, number of tillers, leaf weight, husk weight, underground part weight and the like.
# Phalaenopsis orchid = experiment: Growth of Phalaenopsis orchid flask seedlings in tissue culture; assay type: in vivo; details: 0.005% in MS medium
# Experimental: (§1) Flask seedlings of Phalaenopsis orchid and Cymbidium obtained by tissue culture were used in an experiment.
# As for Phalaenopsis orchid, MS medium supplemented with D-psicose, D-glucose or D-fructose at a concentration of 0.005% (w/v) was used, and the flask seedlings were aseptically transplanted on Sep. 6, 2004. As for the number of seedlings, 4 seedlings were used for 1 test plot, and glass bottles with a capacity of 500 ml and having a hole with a diameter of about 1 cm for preventing dew condensation made in the upper region was used as culture containers. The cultivation was carried out in a culture chamber at 25° C. and 5,000 Lux (12-hour day length) Then, on Jan. 24, 2005, a survey was carried out with regard to the growth conditions of aerial part and underground part and the number of roots. The results are shown in Table 8 (effect of addition of D-psicose on the growth of seedlings of Phalaenopsis orchid).
# Cymbidium = experiment: Growth of Cymbidium flask seedlings in tissue culture; assay type: in vivo; details: 0.005% in MS medium
# Description: as §1
# As for Cymbidium, in the same manner as the above Phalaenopsis orchid, MS medium supplemented with D-psicose, D-glucose, D-fructose or D-allose was used, and the flask seedlings were aseptically transplanted on Oct. 4, 2004. At this time, 4 or 5 leaves and 2 roots were left and the rest of them were cut off using a knife. As for the number of seedlings, 4 seedlings were used for 1 test plot, and glass bottles with a capacity of 900 ml and having a hole with a diameter of about 1 cm for preventing dew condensation made in the upper region was used as culture containers. The cultivation was carried out in a culture chamber at 25° C. and 5,000 Lux (12-hour day length) Then, on Feb. 1, 2005, a survey was carried out with regard to the growth conditions of aerial part and underground part, the number of roots and the number of lateral buds. The results are shown in Table 9 (effect of addition of rare sugar on the growth of seedlings of Cymbidium).
# Bletilla striata = experiment: Growth and bulb formation of Bletilla striata seedlings in tissue culture; assay type: in vivo
# Experimental: Seedling plants of Bletilla striata obtained by sterile sowing were used in an experiment.
# As for the Bletilla striata, by using ½ strength MS medium supplemented with D-psicose, D-allose, D-glucose or D-frucose at a concentration of from 0.005% to 0.05% (w/v), the seedling plants were aseptically transplanted on Feb. 27, 2003, and then, cultivation was carried out under the same conditions as those of the strawberry in Example 3. Then, on Jun. 30, 2003, a survey was carried out with regard to the growth conditions of aerial part and underground part, the number of buds, the ratio of bulb formation, the bulb size and the like.
smiles,measurement,setting,value
O=C(CO)[C@H](O)[C@H](O)[C@H](O)CO [D-psicose],oospore formation,[1],inhibited
same,Dry husk weight,[2]; 0.02% sugar solution sprayed,16.8 g
same,Dry leaf weight,[2]; 0.02% sugar solution sprayed,36.3 g
same,Number of tillers,[2]; 0.02% sugar solution sprayed,33.7
same,Plant length,[2]; 0.02% sugar solution sprayed,73.2 cm
same,Dry husk weight,[2]; 0.10% sugar solution sprayed,14.7 g
same,Dry leaf weight,[2]; 0.10% sugar solution sprayed,31.8 g
same,Number of tillers,[2]; 0.10% sugar solution sprayed,33.5
same,Plant length,[2]; 0.10% sugar solution sprayed,76.3 cm
same,Dry husk weight,[2]; 0.50% sugar solution sprayed,10.2 g
same,Dry leaf weight,[2]; 0.50% sugar solution sprayed,27.9 g
same,Number of tillers,[2]; 0.50% sugar solution sprayed,50.0
same,Plant length,[2]; 0.50% sugar solution sprayed,71.3 cm
same,Underground part weight,Phalaenopsis orchid; non 2.9,4.1 g
same,Aerial part weight,Phalaenopsis orchid; non 4.7,6.1 g
same,Number of roots,Phalaenopsis orchid; non 12.5,16.0 roots
same,Number of lateral buds,Cymbidium; non 0,0.5 buds
same,Aerial part weight,Cymbidium; non 2.1,2.0 g
same,Underground part weight,Cymbidium; non 3.8,4.1 g
same,Number of roots,Cymbidium; non 10.8,10.8 roots
same,growth when the concentration added to the medium was increased,Bletilla striata; increased (high) concentration in medium,the growth thereof was delayed
same,Aerial part weight,Bletilla striata; sugar 0.005% in medium,0.24 g
same,Bulb size,Bletilla striata; sugar 0.005% in medium,6.2 mm
same,Maximum plant length,Bletilla striata; sugar 0.005% in medium,9.3 cm
same,Maximum root length,Bletilla striata; sugar 0.005% in medium,4.4 cm
same,Number of buds,Bletilla striata; sugar 0.005% in medium,4.1
same,Number of leaves,Bletilla striata; sugar 0.005% in medium,3.9
same,Ratio of bulb formation,Bletilla striata; sugar 0.005% in medium,45%
same,Underground part weight,Bletilla striata; sugar 0.005% in medium,0.26 g
same,Aerial part weight,Bletilla striata; sugar 0.02% in medium,0.28 g
same,Bulb size,Bletilla striata; sugar 0.02% in medium,5.6 mm
same,Maximum plant length,Bletilla striata; sugar 0.02% in medium,9.9 cm
same,Maximum root length,Bletilla striata; sugar 0.02% in medium,4.8 cm
same,Number of buds,Bletilla striata; sugar 0.02% in medium,3.3
same,Number of leaves,Bletilla striata; sugar 0.02% in medium,3.9
same,Ratio of bulb formation,Bletilla striata; sugar 0.02% in medium,65%
same,Underground part weight,Bletilla striata; sugar 0.02% in medium,0.22 g
same,Aerial part weight,Bletilla striata; sugar 0.05% in medium,0.20 g
same,Bulb size,Bletilla striata; sugar 0.05% in medium,5.1 mm
same,Maximum plant length,Bletilla striata; sugar 0.05% in medium,7.3 cm
same,Maximum root length,Bletilla striata; sugar 0.05% in medium,5.3 cm
same,Number of buds,Bletilla striata; sugar 0.05% in medium,4.0
same,Number of leaves,Bletilla striata; sugar 0.05% in medium,3.9
same,Ratio of bulb formation,Bletilla striata; sugar 0.05% in medium,67%
same,Underground part weight,Bletilla striata; sugar 0.05% in medium,0.13 g

# Reference: patent US8017828B2, “Utilization of rare sugars in plant or microorganism” (Shikoku Research Institute Incorporated, priority 2004, dated 2011)
